From patent publication US10154996B2, “Fungicidal agent” (priority 2014, dated 2018)
Where “and” joins values, the source holds several entries; their conditions need not be identical. Identical values can stand only once.

Key:
Aspergillus niger = experiment: Aspergillus pneumonia in mice, lung colonization after inhalation treatment; assay type: in vivo, white scrub mice
Protocol: The tests were conducted on white scrub mice (female, 6-8 weeks) received from “Rappolovo” breeding nursery (Leningrad reg.), which were kept under supervision for two weeks prior to the experiments on a standard diet in regulated vivarium conditions. Selection of the animals for the experiment group was conducted by the random selection method. For propagation of aspergillus pneumonia, the white scrub mice received a single intraperitoneal injection of a cyclophosphamide solution (150 mg/kg). After 3 days, the mice received a single intraperitoneal injection of a hydrocortisone solution (250 mg/kg). Twenty-four hours after administration of hydrocortisone the mice were intranasally infected with a suspension of Aspergillus niger (approximately 10^7 cells/ml) under ether narcosis. On day 5 after infection 5 animals from each group were taken to study lung colonization (euthanasia in the rodents was performed by overdose of ether). Lung tissues were used to prepare homogenates, in which the titer of Aspergillus fungi was determined. Observation over the remaining mice was carried out for 14 days after infection to record their mortality. The following groups of animals infected with Aspergillus niger were formed in the experiment. 1. Control groups: K1, K2, K3; the animals were exposed to an aerosol of isotonic sodium chloride solution. 2. Groups E1, E2, E3; the animals were administered a 0.1% aqueous solution of the presented preparation in the form of inhalations. 3. Groups P1, P2; the animals were administered an aqueous solution of the prototype fungicidal agent in the form of inhalations in concentrations of 0.002% and 0.001% respectively. The animals were placed into an aerosol chamber (12 liters) for 30 minutes, during which period 500 mL of air pass through their lungs. “OMRON U1” (Japan) ultrasonic nebulizer was used was used as an aerosol generator. To maintain a constant aerosol concentration in the chamber, a pneumatic vortex generator was used in the pulsed spraying mode ensuring a stable aerosol with particle size of 3 microns. The animals were placed in immobilization containers and exposed to the obtained aerosol for 30 minutes 1 time per day for 3 days starting from day 1 after the infection. Samples of homogenized lung tissue were used to prepare a number of successive dilutions followed by sowing on Saburo medium.

Solubility in water = assay type: physicochemical; conditions: for solubility in water: maximum concentration in water
Source text: (§1) However, this compound is very poorly soluble in aqueous media and in fats. The maximum value of solubility of the known drug in water is 0.002%, and for fats it is no more than 0.001% (octanol, which is a common model of lipids). […] Solutions with such concentration of the active substance are not sufficiently effective. At the same time the task of improvement of efficiency of use of a fungicidal agent in the form of solutions for use in human and veterinary medicine in the form of injections and inhalations and for treatment of a variety of materials and agricultural products is extremely urgent.

[1] = test system: Aspergillus niger and Penicillium notatum; experiment: Protection of construction wood against fungal attacks; conditions: 5 days at 30° C.; for growth of test organisms on the boards: humid environment
Protocol: To test the preparation boards by the dimensions of 20×40×2 cm were used. The boards were divided into three groups. Group 1: the boards were impregnated with a 0.3% aqueous solution of the presented formulation. The impregnation was carried out by twofold application of the solution by means of a diffuser with an intermediate drying. Group 2: the boards were impregnated with a 0.02% aqueous solution of the prototype preparation. The impregnation was carried out by twofold application of the solution by means of a diffuser with an intermediate drying. Group 3 (control): the boards were impregnated with distilled water. The impregnation was carried out by twofold application of water by means of a diffuser with an intermediate drying. The boards dried after treatment were soaked in water for two hours, after which they were coated with Aspergillus niger and Penicillium notatum fungi cultures at opposite ends of one side. The boards were placed in thermostats for 5 days at the temperature of 30° C. in a humid environment. After incubation, the boards were visually inspected and inoculations were made from their surface onto a nutrient medium (Sabouraud).

[2] = test system: Pityrosporum orbiculare-Malassezia furfur; experiment: Treatment of scaly skin disease (Tinea versicolor, Pityriasis versicolor) in patients; assay type: in vivo; conditions: cotton swab 2 times a day, 7 days
Protocol: Treatment of a Fungal Disease of the Skin—Scaly Skin Disease (Tinea Versicolor, Pityriasis versicolor). The disease is caused by a fungus called Pityrosporum orbiculare-Malassezia furfur (mycelial form). The following was prepared for the study: A 0.1% oil (olive oil) solution of the presented preparation and a 0.002% aqueous solution of the prototype substance. As a reference olive oil was used. The study included three groups of patients. Each group included 2 patients with this pathology. Treatment duration was 7 days. The drug was applied with a cotton swab 2 times a day—in the morning and in the evening.

Candida fungi = experiment: Treatment of vulvovaginal candidiasis in patients; assay type: in vivo; conditions: douchings morning and evening, 7 days
Protocol: Treatment of Vulvovaginal Candidiasis. In the experiment, the patients, who suffered vulvovaginal candidiasis caused by Candida fungi, were treated using the following aqueous solutions: 1) 0.1% solution of the presented drug (3 persons), 2) 0.002% solution of the prototype drug (3 people). The treatment in the form of dualfold (in the morning and in the evening) douchings was performed for 7 days. The treatment efficacy was assessed by the clinical presentation and the results mycological examination (inoculations on Saburo medium).

[3] = Solubility in fats / oil solutions; assay type: physicochemical
Source text: as §1

[4] = test system: fungi of the Microsporum genus; experiment: Treatment of ringworm in cats; assay type: in vivo
Source text: The preparation was used in treatment of ringworm in cats (two animals) caused by fungi of the Microsporum genus and characterized by appearance of small round bald patches on the face and ears of the animal. The preparation in the form of a 0.1% aqueous solution was applied onto the affected area three times a day for 6 days.

Leveillula taurica = experiment: Treatment of powdery mildew on tuberous begonias; assay type: in vivo, Begonia tuberosa hybridum; conditions: spray of 0.1% aqueous solution once a day for 7 days
Protocol: The study was conducted on tuberous begonias (Begonia tuberosa hybridum), infected with powdery mildew. Powdery mildew affects many plants, including trees and shrubs. Powdery mildew affects chrysanthemums, begonias, roses; at that a white, sometimes darkening, plaque appears green parts of the plant. The disease is transmitted by airborne spores. The tested plants were infected with spores of a fungus (Leveillula taurica) when exposed up to appearance of a white plaque on the leaves. Three leaves on each plant were infected. After appearance of the plaque the plants in control group (three plants) were isolated from the three plants treated with a spray of a 0.1% aqueous solution of the presented preparation. The treatment was performed once a day for 7 days. After the treatment was complete, observation over the plants was continued for another three weeks.

[5] = lung homogenate day 5, 0.001% aqueous solution, inhalation, group P2
[6] = lung homogenate day 5, 0.002% aqueous solution, inhalation, group P1
[7] = boards impregnated with 0.02% aqueous solution
[8] = 0.1% aqueous solution on affected area three times a day for 6 days
[9] = boards impregnated with 0.3% aqueous solution

Molecule: 2.4-dioxo-5-(2-hydroxy-3.5-dichlorobenzylidene)amino-1.3-pyrimidine [Prototype, reference compound]
- Number of colonies (in different dilutions) 10^−2 (Aspergillus niger; [5]): 37
- Number of colonies (in different dilutions) 10^−4 (Aspergillus niger; [5]): 2
- Number of colonies (in different dilutions) 10^−2 (Aspergillus niger; [6]): 26
- Number of colonies (in different dilutions) 10^−4 (Aspergillus niger; [6]): 1
- solubility in water (Solubility in water): 0.002%
- growth from inoculations on nutrient medium (Sabouraud) [1, 7]: later spread in the nutrient medium
- growth of test organisms on the boards [1, 7]: a growth of the inoculated test bacteria can be detected
- Complete cure ([2]; 0.002% aqueous solution): Absent
- Complete cure (Candida fungi; 0.002% aqueous solution): Not reached
- Mycological cure (reduction in the number of fungi inoculated on a solid medium) (Candida fungi; 0.002% aqueous solution): 1.7-fold reduction in the number of
- solubility in fats ([3]; octanol as common model of lipids): no more than 0.001%

Molecule: N#CSc1cc(C=Nc2c[nH]c(=O)nc2O)c(O)c(SC#N)c1 [presented preparation]
- inflammatory manifestations [4, 8]: disappearance of inflammatory manifestations was reported
- size of affected areas [4, 8]: the affected areas ceased to increase
- growth from inoculations of swabs from the affected area after treatment ([4]; 0.1% aqueous solution three times a day for 6 days, nutrient media): did not lead to growth on nutrient media
- Number of colonies (in different dilutions) 10^−2 (Aspergillus niger; lung homogenate day 5, Saburo medium, 0.1% aqueous solution, inhalation 30 min once daily for 3 days, groups E1-E3): 2 and 4
- solubility in water (Solubility in water): 0.3-0.4%
- increase in solubility versus prototype (Solubility in water; water and oil solutions): more than a hundred-fold
- growth from control inoculations on nutrient medium (Sabouraud) [1, 9]: did not lead to a growth on the nutrient medium
- growth of test organisms on the boards [1, 9]: No growth of the test organisms was registered
- Complete cure ([2]; 0.1% oil (olive oil) solution): Reached
- Complete cure (Candida fungi; 0.1% aqueous solution): Reached
- Mycological cure (reduction in the number of fungi inoculated on a solid medium) (Candida fungi; 0.1% aqueous solution): A tenfold reduction in the number
- growth of fungi after flushing off the leaf and inoculation on a nutrient medium (Leveillula taurica): no growth of the fungi was observed
- increase or spread of the fungus on the plant (Leveillula taurica; observation three more weeks): no increase or spread of the fungus to other parts of the plant occur
- solubility for oil solutions ([3]; oil solutions): 0.25-0.3%
